Assay results: ChEMBL document CHEMBL1201862, “PubChem BioAssay data set” (2004)
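Values below derive from 48-hour exposures of cells grown in 96-well plates, with endpoints linearly interpolated between the two concentrations bracketing the appropriate inhibition level. At the GI50, growth is halved.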 Activity calls are given as the source filed them. No stated cut-off is given here; in the data, active = GI50 up to about 1.1 µM and inactive = higher.

Experiments:
Test in all cases: growth of human tumour cells (NCI), 48 h
A549 = system: A549
SNB-19 = system: SNB-19
SF-539 = system: SF-539
HCT-15 = system: HCT-15
HOP-62 = system: HOP-62
DMS-273 = system: DMS-273
IGROV-1 = system: IGROV-1
OVCAR-8 = system: OVCAR-8
OVCAR-3 = system: OVCAR-3
MOLT-4 = system: MOLT-4
TK-10 = system: TK-10
HCT-116 = system: HCT-116
NCI-H23 = system: NCI-H23
SK-MEL-28 = system: SK-MEL-28
UO-31 = system: UO-31
NCI-H522 = system: NCI-H522
MDA-N = system: MDA-N
RXF 393 = system: RXF 393
NCI/ADR-RES = system: NCI/ADR-RES
MDA-MB-435 = system: MDA-MB-435

| SMILES | GI50 (A549) | GI50 (SNB-19) | GI50 (SF-539) | GI50 (HCT-15) | GI50 (HOP-62) | GI50 (DMS-273) | GI50 (IGROV-1) | GI50 (OVCAR-8) | GI50 (OVCAR-3) | GI50 (MOLT-4) | GI50 (TK-10) | GI50 (HCT-116) | GI50 (NCI-H23) | GI50 (SK-MEL-28) | GI50 (UO-31) | GI50 (NCI-H522) | GI50 (MDA-N) | GI50 (RXF 393) | GI50 (NCI/ADR-RES) | GI50 (MDA-MB-435) |
| --- | --- | --- | --- | --- | --- | --- | --- | --- | --- | --- | --- | --- | --- | --- | --- | --- | --- | --- | --- | --- |
| O=C1Nc2ccccc2C12CCNC2Cc1ccccc1 (stereo not given) | > 100 µM (inactive) | 56.6 µM (inactive) | > 100 µM (inactive) | > 100 µM | > 100 µM (inactive) | > 100 µM (inactive) | > 100 µM (inactive) | > 100 µM (inactive) | > 100 µM (inactive) | > 100 µM (inactive) | > 100 µM (inactive) | > 100 µM (inactive) | > 100 µM (inactive) | > 100 µM (inactive) | – | – | – | – | – | – |
| O=C(CC(=O)c1cccc2ccccc12)C(=O)NC1C2CC3CC(C2)CC1C3 (stereo not given) | > 100 µM (inactive) | > 100 µM (inactive) | > 100 µM (inactive) | > 100 µM | > 100 µM (inactive) | > 100 µM (inactive) | > 100 µM (inactive) | > 100 µM (inactive) | > 100 µM (inactive) | > 100 µM (inactive) | > 100 µM (inactive) | > 100 µM (inactive) | > 100 µM (inactive) | – | > 100 µM (inactive) | > 100 µM (inactive) | – | – | – | – |
| Cc1ccc(C2(O)CC(c3ccc([N+](=O)[O-])o3)=NN2C(=O)COc2ccc(Cl)cc2)cc1 (stereo not given) | 7.29 µM (inactive) | 6.62 µM (inactive) | 10.2 µM (inactive) | 3.1 µM | 12.3 µM (inactive) | 6.32 µM (inactive) | 11.4 µM (inactive) | 4.63 µM (inactive) | 5.35 µM (inactive) | 3.26 µM (inactive) | 15 µM (inactive) | 3.85 µM (inactive) | 5.2 µM (inactive) | 9.77 µM (inactive) | 5.5 µM (inactive) | 9.04 µM (inactive) | – | – | – | – |
| COC(=O)C1=C(C)N(NC(N)=O)C2(N)N(NC(N)=O)C(C)=C(C(=O)OC)C12C(=O)OC (stereo not given) | > 100 µM (inactive) | > 100 µM (inactive) | > 100 µM (inactive) | > 100 µM | > 100 µM (inactive) | > 100 µM (inactive) | > 100 µM (inactive) | > 100 µM (inactive) | > 10 µM (inactive) | > 100 µM (inactive) | > 100 µM (inactive) | > 100 µM (inactive) | > 100 µM (inactive) | > 100 µM (inactive) | > 100 µM (inactive) | > 100 µM (inactive) | – | – | – | – |
| NC(=O)N/N=C(\Cc1cc(=O)oc2cc(O)ccc12)C(=O)Nc1ccccc1C(N)=O | > 100 µM (inactive) | > 100 µM (inactive) | > 100 µM (inactive) | > 100 µM | > 100 µM (inactive) | – | > 100 µM (inactive) | > 100 µM (inactive) | > 100 µM (inactive) | > 100 µM (inactive) | > 100 µM (inactive) | > 100 µM (inactive) | > 100 µM (inactive) | > 100 µM (inactive) | > 100 µM (inactive) | > 100 µM (inactive) | > 100 µM (inactive) | > 100 µM (inactive) | > 100 µM (inactive) | > 100 µM (inactive) |
| N#Cc1cc2c(n(C3OC(CO)C(O)C(O)C3O)c1=S)CCCCC2 (stereo not given) | > 100 µM (inactive) | > 100 µM (inactive) | > 100 µM (inactive) | > 100 µM | > 100 µM (inactive) | – | > 100 µM (inactive) | > 100 µM (inactive) | > 100 µM (inactive) | > 100 µM (inactive) | > 100 µM (inactive) | > 100 µM (inactive) | > 100 µM (inactive) | > 100 µM (inactive) | > 100 µM (inactive) | > 100 µM (inactive) | > 100 µM (inactive) | > 100 µM (inactive) | > 100 µM (inactive) | > 100 µM (inactive) |
| CN(CCNC(=O)c1nn(-c2ccccc2)c2c1ccc1ccccc12)CCNC(=O)c1nn(-c2ccccc2)c2c1ccc1ccccc12 | 2.94 µM (inactive) | 2.54 µM (inactive) | 1.66 µM (inactive) | 1.76 µM | 1.43 µM (inactive) | – | 1.98 µM (inactive) | 1.79 µM (inactive) | 1.71 µM (inactive) | 0.38 µM (active) | 1.4 µM (inactive) | 1.53 µM (inactive) | 2.51 µM (inactive) | 1.7 µM (inactive) | 2.07 µM (inactive) | 2.04 µM (inactive) | 1.75 µM (inactive) | 1.62 µM (inactive) | 2.55 µM (inactive) | 1.97 µM (inactive) |
| CC(/C=N/N(C)C1=NCCCCN1)=N/N(C)C1=NCCCCN1 | > 100 µM (inactive) | > 100 µM (inactive) | > 100 µM (inactive) | > 100 µM | > 100 µM (inactive) | – | > 100 µM (inactive) | > 100 µM (inactive) | > 100 µM (inactive) | > 100 µM (inactive) | > 100 µM (inactive) | > 100 µM (inactive) | > 100 µM (inactive) | > 100 µM (inactive) | > 100 µM (inactive) | > 100 µM (inactive) | > 100 µM (inactive) | > 100 µM (inactive) | > 100 µM (inactive) | > 100 µM (inactive) |
| COc1ccccc1NC(=S)N/N=C(/c1ccccc1)c1ccccn1 | 0.141 µM (active) | 2.6 µM (inactive) | 1.37 µM (inactive) | 0.045 µM | 0.251 µM (active) | – | 0.0225 µM (active) | 0.0627 µM (active) | < 0.0143 µM (active) | < 0.0182 µM (active) | 0.125 µM (active) | < 0.0147 µM (active) | < 0.013 µM (active) | 1.39 µM (inactive) | 0.2 µM (active) | 0.499 µM (active) | 0.229 µM (active) | 1.07 µM (active) | 0.0853 µM (active) | 0.356 µM (active) |
| Cc1cc(N(CCC#N)CCC#N)ccc1C(=N/NC(=O)c1cc(Cl)ccc1O)/N=N/c1cccc([N+](=O)[O-])c1 | 28 µM (inactive) | 26.5 µM (inactive) | 44.5 µM (inactive) | 25.5 µM | 24.2 µM (inactive) | – | 11.3 µM (inactive) | 22.6 µM (inactive) | 15.9 µM (inactive) | 6.03 µM (inactive) | 27.2 µM (inactive) | 22.2 µM (inactive) | 22.6 µM (inactive) | 28.9 µM (inactive) | 17.6 µM (inactive) | 17.3 µM (inactive) | 37 µM (inactive) | 22.2 µM (inactive) | 23 µM (inactive) | 35.4 µM (inactive) |
| Clc1ccc(Cl)c(/N=N/c2cc3c4c(c2)CCCN4CCC3)c1 | > 10 µM (inactive) | > 10 µM (inactive) | > 10 µM (inactive) | > 10 µM | > 10 µM (inactive) | – | > 10 µM (inactive) | > 10 µM (inactive) | > 10 µM (inactive) | > 10 µM (inactive) | > 10 µM (inactive) | > 10 µM (inactive) | > 10 µM (inactive) | > 10 µM (inactive) | > 10 µM (inactive) | > 10 µM (inactive) | > 10 µM (inactive) | > 10 µM (inactive) | > 10 µM (inactive) | > 10 µM (inactive) |
| c1ccc(SC23C4C5C6C4C2C6C53)nc1 (stereo not given) | > 100 µM (inactive) | > 100 µM (inactive) | > 75 µM (inactive) | > 100 µM | > 100 µM (inactive) | > 100 µM (inactive) | > 100 µM (inactive) | > 100 µM (inactive) | > 100 µM (inactive) | > 100 µM (inactive) | > 67.9 µM (inactive) | > 100 µM (inactive) | > 100 µM (inactive) | > 100 µM (inactive) | 35.6 µM (inactive) | > 100 µM (inactive) | – | – | – | – |
